Key:
[1] = test system: ISC-enriched organoids; assay: Primary screen, 384-well 2.5-D organoid differentiation (ENR+CD, 6 days): carbachol-induced lysozyme secretion (LYZ.S); format: cell-based, murine; conditions: primary screen, ENR+CD 6 days, FC vs plate median
From the text: (§1) High-throughput screening.

[2] = test system: ISC-enriched organoids; assay: Primary screen, 384-well 2.5-D organoid differentiation (ENR+CD, 6 days): basal lysozyme secretion (LYZ.NS); format: cell-based, murine; conditions: primary screen; for Dose.FC.LYZ.NS: ENR+CD 6 days, FC vs plate median; for Z.LYZ.NS: standard z score of FC
From the text: as §1

[3] = test system: ISC-enriched organoids; assay: Primary screen, 384-well 2.5-D organoid differentiation (ENR+CD, 6 days, Target Selective Inhibitor Library, vs whole-plate median): ATP (CellTiter-Glo 3D, CTG); conditions: primary screen; for Dose.FC.CTG: ENR+CD 6 days, FC vs plate median; for Z.CTG: standard z score of FC

Structure (SMILES)	Dose.FC.LYZ.S ([1]; dose 0.08 uM) [log 2 fold change]	Dose.FC.LYZ.S ([1]; dose 0.40 uM) [log 2 fold change]	Dose.FC.LYZ.S ([1]; dose 2.00 uM) [log 2 fold change]	Dose.FC.LYZ.S ([1]; dose 10.00 uM) [log 2 fold change]	Dose.FC.LYZ.NS ([2]; dose 0.08 uM) [log 2 fold change]	Z.LYZ.NS ([2]; dose 0.08 uM)	Dose.FC.LYZ.NS ([2]; dose 0.40 uM) [log 2 fold change]	Z.LYZ.NS ([2]; dose 0.40 uM)	Dose.FC.LYZ.NS ([2]; dose 2.00 uM) [log 2 fold change]	Z.LYZ.NS ([2]; dose 2.00 uM)	Dose.FC.LYZ.NS ([2]; dose 10.00 uM) [log 2 fold change]	Z.LYZ.NS ([2]; dose 10.00 uM)	Dose.FC.CTG ([3]; dose 0.08 uM) [log 2 fold change]	Z.CTG ([3]; dose 0.08 uM)	Dose.FC.CTG ([3]; dose 0.40 uM) [log 2 fold change]	Z.CTG ([3]; dose 0.40 uM)	Dose.FC.CTG ([3]; dose 2.00 uM) [log 2 fold change]	Z.CTG ([3]; dose 2.00 uM)	Dose.FC.CTG ([3]; dose 10.00 uM) [log 2 fold change]	Z.CTG ([3]; dose 10.00 uM)
CC(=O)Nc1cccc2c1c(Sc1ccc(Cl)cc1)c(C)n2CC(=O)O [AZD1981]	0.023	0.191	0.014	0.070	0.009	0.081	0.001	0.008	0.001	0.011	0.024	0.205	0.400	0.955	0.285	0.681	0.099	0.236	0.238	0.570
COC1CCN(C(=O)c2cc(Cc3n[nH]c(=O)c4ccccc34)ccc2F)CC1 [AZD2461]	0.097	0.015	−0.100	−0.224	0.038	0.334	−0.038	−0.327	−0.074	−0.641	−0.172	−1.497	0.073	0.174	−0.040	−0.095	−0.232	−0.555	−0.336	−0.803
COc1cc(N2CCC(N)CC2)ccc1Nc1ncc(Cl)c(-c2c[nH]c3ccccc23)n1 [AZD3463]	−0.199	−0.293	−0.315	−0.328	−0.147	−1.279	−0.190	−1.652	−0.232	−2.021	−0.209	−1.820	−0.275	−0.657	−0.341	−0.814	−0.772	−1.843	−0.960	−2.293
Cc1cc([C@@H](C)Nc2ccccc2C(=O)O)c2nc(N3CCOCC3)cc(=O)n2c1 [AZD6482]	0.182	0.156	−0.114	−0.253	0.108	0.944	0.076	0.660	−0.130	−1.129	−0.248	−2.160	0.240	0.572	0.223	0.533	−0.509	−1.215	−1.203	−2.874
CN(C)C(=O)c1ccc(S(=O)(=O)c2ccc(NC(=O)[C@@](C)(O)C(F)(F)F)c(Cl)c2)cc1 [AZD7545]	0.111	−0.017	−0.148	−0.104	0.087	0.758	−0.028	−0.245	−0.018	−0.155	−0.051	−0.441	−0.334	−0.798	−0.158	−0.378	−0.255	−0.608	−0.350	−0.836
NC(=O)Nc1cc(-c2cccc(F)c2)sc1C(=O)N[C@H]1CCCNC1 [AZD7762]	0.019	−0.251	−0.342	−0.369	0.010	0.084	−0.159	−1.385	−0.211	−1.835	−0.220	−1.917	0.054	0.129	−0.384	−0.917	−0.804	−1.920	−1.361	−3.251
COc1cc(F)c(C(C)C)cc1-c1ccc(C(F)(F)F)cc1CN1C(=O)O[C@H](c2cc(C(F)(F)F)cc(C(F)(F)F)c2)[C@@H]1C [Anacetrapib (MK-0859)]	0.051	−0.002	−0.046	−0.036	0.013	0.112	0.007	0.060	−0.015	−0.129	−0.036	−0.314	−0.090	−0.214	0.035	0.084	−0.094	−0.225	0.031	0.075
O=C1C(=O)N(Cc2ccc(Cl)c(Cl)c2)c2ccccc21 [Apoptosis Activator 2]	0.132	0.073	−0.009	−0.252	0.149	1.302	0.033	0.290	−0.006	−0.049	−0.199	−1.734	0.304	0.725	0.262	0.626	0.082	0.195	−0.158	−0.378

From US20230398130A1, “METHODS AND COMPOSITIONS FOR DIFFERENTIATING STEM CELLS” (Massachusetts Institute of Technology, priority 2020, published 2023)
